Experimental data taken from ChEMBL document CHEMBL5247660, “The lipidation and glycosylation enabling bioactivity enhancement and structural change of antibacterial peptide G3” (Bioorg Med Chem Lett, 2023).
Converted amounts (≈) assume the structure as drawn. The source made the active and inactive calls. The calls are words filed in the database; no cut-off is given here. Residues, ends and D or L forms follow the SMILES beside them. *: point of attachment. βGlc = OC[C@H]1O[C@@H](*)[C@H](O)[C@@H](O)[C@@H]1O; βGal = OC[C@H]1O[C@@H](*)[C@H](O)[C@@H](O)[C@H]1O; Palmitoyl = CCCCCCCCCCCCCCCC(=O)*; Lauroyl = CCCCCCCCCCCC(=O)*; Octanoyl = CCCCCCCC(=O)*

Legend:
[1] = target: T1, PA-I galactophilic lectin (Pseudomonas aeruginosa (strain ATCC 15692 / PAO1 / 1C / PRS 101 / LMG12228)) (UniProt Q05097); assay: Binding affinity to Pseudomonas aeruginosa LecA assessed as change in enthalpy
T1 sequence (whole entry): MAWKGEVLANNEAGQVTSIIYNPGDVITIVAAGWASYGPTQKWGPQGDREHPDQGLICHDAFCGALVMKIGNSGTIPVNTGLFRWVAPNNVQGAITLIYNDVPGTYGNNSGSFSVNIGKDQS

[2] = target: T2, PA-I galactophilic lectin (Pseudomonas aeruginosa (strain ATCC 15692 / PAO1 / 1C / PRS 101 / LMG12228), UniProt Q05097); assay: Binding affinity to Pseudomonas aeruginosa LecA assessed as dissociation constant
T2 sequence (Q05097 whole entry): T1 sequence (whole entry)

Staphylococcus aureus [3] = assay: Antibacterial activity against Staphylococcus aureus assessed as bacterial growth inhibition; assay type: functional
Pseudomonas aeruginosa [4] = assay: Antibiofilm activity against Pseudomonas aeruginosa PAO1 assessed as removal of mature biofilm at 32 uM incubated for 4 hrs at relative to control; assay type: functional
Pseudomonas aeruginosa [5] = assay: Antibiofilm activity against Pseudomonas aeruginosa PAO1; assay type: functional, organism-based
Pseudomonas aeruginosa [6] = assay: Antibiofilm activity against Pseudomonas aeruginosa PAO1 assessed as inhibition of biofilm formation at 8 to 32 uM incubated for 24 hrs by microplate reader analysis relative to control; assay type: functional; conditions: dose 8-32 µM, read-out: MIC
Staphylococcus aureus [7] = assay: Antibacterial activity against methicillin-resistant Staphylococcus aureus assessed as bacterial growth inhibition; assay type: functional
Pseudomonas aeruginosa [8] = assay: Antibacterial activity against Pseudomonas aeruginosa assessed as bacterial growth inhibition; assay type: functional
Cell membrane = assay: Induction of outer membrane permeabilization in Pseudomonas aeruginosa PAO1 assessed as increase in NPN uptake at 8 to 32 uM by NPN-dye based fluorescence analysis; conditions: dose 8-32 µM
Escherichia coli = assay: Antibacterial activity against Escherichia coli assessed as bacterial growth inhibition; assay type: functional
Pseudomonas aeruginosa [9] = assay: Antibiofilm activity against Pseudomonas aeruginosa PAO1 assessed as inhibition of biofilm formation at 32 uM incubated for 24 hrs by microplate reader analysis relative to control; assay type: functional
[10] = target: T1, PA-I galactophilic lectin (Pseudomonas aeruginosa (strain ATCC 15692 / PAO1 / 1C / PRS 101 / LMG12228)); assay: Binding affinity to Pseudomonas aeruginosa LecA assessed as change in entropy
[11] = Hemolytic activity in sheep RBC assessed as hemolysis at 128 uM; assay type: toxicity, cell-based, Ovis aries; conditions: erythrocyte
Pseudomonas aeruginosa [12] = assay: Antibiofilm activity against Pseudomonas aeruginosa PAO1 assessed as inhibition of biofilm formation ratio at MIC concentration incubated for 24 hrs by microplate reader analysis relative to control; assay type: functional; parameters: scale not given: the % may be the effect or the level left
[13] = Hemolytic activity in sheep RBC assessed as hemolysis; assay type: toxicity, cell-based, Ovis aries; conditions: erythrocyte
Pseudomonas aeruginosa [14] = assay: Antibiofilm activity against Pseudomonas aeruginosa PAO1 assessed as inhibition of biofilm formation ratio at 2 times of MIC concentration incubated for 24 hrs by microplate reader analysis relative to control; assay type: functional; parameters: scale not given: the % may be the effect or the level left
Pseudomonas aeruginosa [15] = assay: Antibiofilm activity against Pseudomonas aeruginosa PAO1 assessed as increase in biofilm inhibition ratio at 2 times of MIC concentration incubated for 24 hrs by microplate reader analysis relative to control; assay type: functional; parameters: scale not given: the % may be the effect or the level left
Pseudomonas aeruginosa [16] = assay: Antibiofilm activity against Pseudomonas aeruginosa PAO1 assessed as increase in biofilm inhibition ratio at half MIC concentration incubated for 24 hrs by microplate reader analysis relative to control; assay type: functional; parameters: scale not given: the % may be the effect or the level left
Pseudomonas aeruginosa [17] = assay: Antibiofilm activity against Pseudomonas aeruginosa PAO1 assessed as increase in biofilm inhibition ratio at MIC concentration incubated for 24 hrs by microplate reader analysis relative to control; assay type: functional; parameters: scale not given: the % may be the effect or the level left

## CC[C@H](C)[C@H](NC(=O)CN)C(=O)N[C@H](C(=O)N[C@@H](CCCCN)C(=O)N[C@@H](CCCCN)C(=O)N[C@H](C(=O)N[C@H](C(=O)N[C@@H](CCCCN)C(=O)N[C@@H](CCCCN)C(=O)N[C@H](C(=O)N[C@H](C(=O)N[C@@H](CCCCN)C(=O)N[C@@H](CCCCN)C(=O)N[C@H](C(=O)N[C@@H](CO[C@@H]1O[C@H](CO)[C@H](O)[C@H](O)[C@H]1O)C(N)=O)[C@@H](C)CC)[C@@H](C)CC)[C@@H](C)CC)[C@@H](C)CC)[C@@H](C)CC)[C@@H](C)CC (H-GIIKKIIKKIIKKIS(βGal)-NH2)
[1]
  deltaH: -100 kJ/mol
[2]
  Kd: 21.1 µM
Staphylococcus aureus [3]
  MIC: 16 µM (≈ 30.2 µg/mL)
Pseudomonas aeruginosa [4]
  Activity: 62%
Pseudomonas aeruginosa [5]
  Activity: Active
Pseudomonas aeruginosa [6]
  Minimum biofilm inhibitory concentration: 16 µM
Staphylococcus aureus [7]
  MIC: 32 µM (≈ 60.3 µg/mL)
Pseudomonas aeruginosa [8]
  MIC: 16 µM (≈ 30.2 µg/mL)
Cell membrane
  Activity: Active
Escherichia coli
  MIC: 32 µM (≈ 60.3 µg/mL)
Pseudomonas aeruginosa [9]
  MIC: 32 µM (≈ 60.3 µg/mL)
[10]
  deltaS: -246 J/mol/K

## CC[C@H](C)[C@H](NC(=O)CN)C(=O)N[C@H](C(=O)N[C@@H](CCCCN)C(=O)N[C@@H](CCCCN)C(=O)N[C@H](C(=O)N[C@H](C(=O)N[C@@H](CCCCN)C(=O)N[C@@H](CCCCN)C(=O)N[C@H](C(=O)N[C@H](C(=O)N[C@@H](CCCCN)C(=O)N[C@@H](CCCCN)C(=O)N[C@H](C(=O)N[C@@H](CO[C@@H]1O[C@H](CO)[C@@H](O)[C@H](O)[C@H]1O)C(N)=O)[C@@H](C)CC)[C@@H](C)CC)[C@@H](C)CC)[C@@H](C)CC)[C@@H](C)CC)[C@@H](C)CC (H-GIIKKIIKKIIKKIS(βGlc)-NH2)
Staphylococcus aureus [3]
  MIC: 16 µM (≈ 30.2 µg/mL)
Pseudomonas aeruginosa [4]
  Activity: 71%
Pseudomonas aeruginosa [5]
  Activity: Active
Pseudomonas aeruginosa [6]
  Minimum biofilm inhibitory concentration: 16 µM
Staphylococcus aureus [7]
  MIC: 32 µM (≈ 60.3 µg/mL)
Pseudomonas aeruginosa [8]
  MIC: 16 µM (≈ 30.2 µg/mL)
Cell membrane
  Activity: Active
Escherichia coli
  MIC: 32 µM (≈ 60.3 µg/mL)

## CCCCCCCCCCCC(=O)NCC(=O)N[C@H](C(=O)N[C@H](C(=O)N[C@@H](CCCCN)C(=O)N[C@@H](CCCCN)C(=O)N[C@H](C(=O)N[C@H](C(=O)N[C@@H](CCCCN)C(=O)N[C@@H](CCCCN)C(=O)N[C@H](C(=O)N[C@H](C(=O)N[C@@H](CCCCN)C(=O)N[C@@H](CCCCN)C(=O)N[C@H](C(N)=O)[C@@H](C)CC)[C@@H](C)CC)[C@@H](C)CC)[C@@H](C)CC)[C@@H](C)CC)[C@@H](C)CC)[C@@H](C)CC (Lauroyl-GIIKKIIKKIIKKI-NH2)
Staphylococcus aureus [3]
  MIC: 4 µM (≈ 7.27 µg/mL)
Pseudomonas aeruginosa [6]
  Minimum biofilm inhibitory concentration: 16 µM
Staphylococcus aureus [7]
  MIC: 12 µM (≈ 21.8 µg/mL)
Pseudomonas aeruginosa [8]
  MIC: 16 µM (≈ 29.1 µg/mL)
Cell membrane
  Activity: Active
Escherichia coli
  MIC: 12 µM (≈ 21.8 µg/mL)

## CCCCCCCC(=O)NCC(=O)N[C@H](C(=O)N[C@H](C(=O)N[C@@H](CCCCN)C(=O)N[C@@H](CCCCN)C(=O)N[C@H](C(=O)N[C@H](C(=O)N[C@@H](CCCCN)C(=O)N[C@@H](CCCCN)C(=O)N[C@H](C(=O)N[C@H](C(=O)N[C@@H](CCCCN)C(=O)N[C@@H](CCCCN)C(=O)N[C@H](C(N)=O)[C@@H](C)CC)[C@@H](C)CC)[C@@H](C)CC)[C@@H](C)CC)[C@@H](C)CC)[C@@H](C)CC)[C@@H](C)CC (Octanoyl-GIIKKIIKKIIKKI-NH2)
[11]
  Activity: Toxic
Staphylococcus aureus [3]
  MIC: 4 µM (≈ 7.05 µg/mL)
Pseudomonas aeruginosa [6]
  Minimum biofilm inhibitory concentration: 16 µM
Staphylococcus aureus [7]
  MIC: 4 µM (≈ 7.05 µg/mL)
Pseudomonas aeruginosa [8]
  MIC: 16 µM (≈ 28.2 µg/mL)
Cell membrane
  Activity: Active
Escherichia coli
  MIC: 4 µM (≈ 7.05 µg/mL)

## CCCCCCCC(=O)NCC(=O)N[C@H](C(=O)N[C@H](C(=O)N[C@@H](CCCCN)C(=O)N[C@@H](CCCCN)C(=O)N[C@H](C(=O)N[C@H](C(=O)N[C@@H](CCCCN)C(=O)N[C@@H](CCCCN)C(=O)N[C@H](C(=O)N[C@H](C(=O)N[C@@H](CCCCN)C(=O)N[C@@H](CCCCN)C(=O)N[C@H](C(=O)N[C@@H](CO[C@@H]1O[C@H](CO)[C@H](O)[C@H](O)[C@H]1O)C(N)=O)[C@@H](C)CC)[C@@H](C)CC)[C@@H](C)CC)[C@@H](C)CC)[C@@H](C)CC)[C@@H](C)CC)[C@@H](C)CC (Octanoyl-GIIKKIIKKIIKKIS(βGal)-NH2)
[1]
  deltaH: -18.9 kJ/mol
Pseudomonas aeruginosa [12]
  Activity: 71%
[2]
  Kd: 14.1 µM
Staphylococcus aureus [3]
  MIC: 4 µM (≈ 8.04 µg/mL)
Pseudomonas aeruginosa [5]
  Activity: Active
[13]
  Activity: Dose-Dependent Effect
Pseudomonas aeruginosa [6]
  Minimum biofilm inhibitory concentration: 16 µM
Staphylococcus aureus [7]
  MIC: 4 µM (≈ 8.04 µg/mL)
Pseudomonas aeruginosa [8]
  MIC: 16 µM (≈ 32.2 µg/mL)
Cell membrane
  Activity: Active
Escherichia coli
  MIC: 4 µM (≈ 8.04 µg/mL)
Pseudomonas aeruginosa [14]
  Activity: 71%
[10]
  deltaS: 29.4 J/mol/K

## CCCCCCCC(=O)NCC(=O)N[C@H](C(=O)N[C@H](C(=O)N[C@@H](CCCCN)C(=O)N[C@@H](CCCCN)C(=O)N[C@H](C(=O)N[C@H](C(=O)N[C@@H](CCCCN)C(=O)N[C@@H](CCCCN)C(=O)N[C@H](C(=O)N[C@@H](CO[C@@H]1O[C@H](CO)[C@H](O)[C@H](O)[C@H]1O)C(N)=O)[C@@H](C)CC)[C@@H](C)CC)[C@@H](C)CC)[C@@H](C)CC)[C@@H](C)CC (Octanoyl-GIIKKIIKKIS(βGal)-NH2)
[1]
  deltaH: -27.3 kJ/mol
[2]
  Kd: 28 µM
Staphylococcus aureus [3]
  MIC: 4 µM (≈ 6.11 µg/mL)
Pseudomonas aeruginosa [6]
  Minimum biofilm inhibitory concentration: 16 µM
Staphylococcus aureus [7]
  MIC: 4 µM (≈ 6.11 µg/mL)
Pseudomonas aeruginosa [8]
  MIC: 16 µM (≈ 24.4 µg/mL)
Cell membrane
  Activity: Active
Escherichia coli
  MIC: 12 µM (≈ 18.3 µg/mL)
[10]
  deltaS: -4.53 J/mol/K

## CCCCCCCCCCCCCCCC(=O)NCC(=O)N[C@H](C(=O)N[C@H](C(=O)N[C@@H](CCCCN)C(=O)N[C@@H](CCCCN)C(=O)N[C@H](C(=O)N[C@H](C(=O)N[C@@H](CCCCN)C(=O)N[C@@H](CCCCN)C(=O)N[C@H](C(=O)N[C@H](C(=O)N[C@@H](CCCCN)C(=O)N[C@@H](CCCCN)C(=O)N[C@H](C(N)=O)[C@@H](C)CC)[C@@H](C)CC)[C@@H](C)CC)[C@@H](C)CC)[C@@H](C)CC)[C@@H](C)CC)[C@@H](C)CC (Palmitoyl-GIIKKIIKKIIKKI-NH2)
Staphylococcus aureus [3]
  MIC: 16 µM (≈ 30 µg/mL)
Pseudomonas aeruginosa [6]
  Minimum biofilm inhibitory concentration: 16 µM
Staphylococcus aureus [7]
  MIC: 32 µM (≈ 60 µg/mL)
Pseudomonas aeruginosa [8]
  MIC: 32 µM (≈ 60 µg/mL)
Cell membrane
  Activity: Active
Escherichia coli
  MIC: 32 µM (≈ 60 µg/mL)

## Ac-GIIKKIIKKIIKKI-NH2
Staphylococcus aureus [3]
  MIC: 4 µM
Pseudomonas aeruginosa [6]
  Minimum biofilm inhibitory concentration: 16 µM
Staphylococcus aureus [7]
  MIC: 12 µM
Pseudomonas aeruginosa [8]
  MIC: 32 µM
Cell membrane
  Activity: Active
Escherichia coli
  MIC: 12 µM

## H-GIIKKIIKKIIKKI-NH2
Staphylococcus aureus [3]
  MIC: 4 µM
Pseudomonas aeruginosa [15]
  Activity: 59%
Pseudomonas aeruginosa [6]
  Minimum biofilm inhibitory concentration: 16 µM
Pseudomonas aeruginosa [16]
  Activity: 45%
Staphylococcus aureus [7]
  MIC: 16 µM
Pseudomonas aeruginosa [8]
  MIC: 16 µM
Cell membrane
  Activity: Active
Escherichia coli
  MIC: 8 µM
Pseudomonas aeruginosa [17]
  Activity: 46%
